{
  "source": "ChEMBL document CHEMBL5233246",
  "about": "“CT1-3, a novel magnolol-sulforaphane hybrid suppresses tumorigenesis through inducing mitochondria-mediated apoptosis and inhibiting epithelial mesenchymal transition” (Eur J Med Chem, 2020)",
  "key": {"LoVo [1]": {"test_system": "LoVo", "assay": "Antiproliferative activity against human LoVo cells assessed as reduction in cell viability incubated for 24 hrs by CCK-8 assay", "format": "functional, cell-based"}, "NCI-H460 [2]": {"test_system": "NCI-H460", "assay": "Induction of apoptosis in human NCI-H460 cells assessed as decrease in XIAP protein expression level at 7.5 uM incubated for 24 hrs by western blot assay", "format": "functional, cell-based"}, "[3]": {"assay": "Toxicity in BALB/c mouse xenografted with human MDA-MB-231 cells assessed as kidney pathological change at 20 mg/kg,ip measured after 28 days", "format": "organism-based", "conditions": "in vivo, 672 h, time 28 day"}, "NCI-H460 [4]": {"test_system": "NCI-H460", "assay": "Induction of apoptosis in human NCI-H460 cells assessed as viable cells at 10 uM incubated for 24 hrs by annexin V-FITC/propidium iodide staining based flow cytometry analysis (reference value: 97.9%)", "format": "functional", "conditions": "read-out: Activity"}, "[5]": {"assay": "Antiproliferative activity against human […] cells assessed as reduction in cell viability incubated for 24 hrs by CCK-8 assay", "format": "functional, cell-based"}, "LoVo [6]": {"test_system": "LoVo", "assay": "Inhibition of cell migration in human LoVo cells assessed as downregulation of Snail protein expression at 7.5 uM incubated for 24 hrs by western blot analysis", "format": "functional, cell-based"}, "LoVo [7]": {"test_system": "LoVo", "assay": "Induction of apoptosis in human LoVo cells assessed as reduction of mitochondrial membrane potential at 10 uM incubated for 8 hrs by JC-1 staining based fluorescence microscopic assay", "format": "functional, cell-based"}, "NCI-H460 [8]": {"test_system": "NCI-H460", "assay": "Induction of apoptosis in human NCI-H460 cells assessed as increase in ROS level at 10 uM incubated for 8 hrs by H2DCFDA staining based fluorescence microscopic assay", "format": "functional, cell-based"}, "L02": {"test_system": "L02", "assay": "Cytotoxicity against human L02 cells assessed as reduction in cell viability incubated for 8 hrs by CCK-8 assay", "format": "toxicity, cell-based", "conditions": "l02, 8 h"}, "MDA-MB-231 [9]": {"test_system": "MDA-MB-231", "assay": "Antiproliferative activity against human MDA-MB-231 cells assessed as reduction in cell viability incubated for 24 hrs by CCK-8 assay", "format": "functional, cell-based", "conditions": "MDA-MB-231, 24 h"}, "AGS": {"test_system": "AGS", "assay": "Inhibition of colony formation in human AGS cells incubated for 48 hrs by Giemsa staining based microscopy", "format": "functional, cell-based"}, "A549 [10]": {"test_system": "A549", "assay": "Induction of apoptosis in human A549 cells assessed as necrotic cells at 10 uM incubated for 24 hrs by annexin V-FITC/propidium iodide staining based flow cytometry analysis (reference value: 0.4%)", "format": "functional"}, "A549 [11]": {"test_system": "A549", "assay": "Inhibition of cell migration in human A549 cells at 7.5 uM incubated for 24 hrs by crystal violet staining based transwell assay", "format": "functional"}, "LoVo [12]": {"test_system": "LoVo", "assay": "Induction of apoptosis in human LoVo cells assessed as increase in JNK phosphorylation at 7.5 uM incubated for 24 hrs by western blot assay", "format": "functional, cell-based"}, "LoVo [13]": {"test_system": "LoVo", "assay": "Induction of apoptosis in human LoVo cells assessed as necrotic cells at 10 uM incubated for 24 hrs by annexin V-FITC/propidium iodide staining based flow cytometry analysis (reference value: 0.3%)", "format": "functional"}, "NCI-H460 [14]": {"test_system": "NCI-H460", "assay": "Inhibition of cell migration in human NCI-H460 cells at 7.5 uM incubated for 24 hrs by crystal violet staining based transwell assay", "format": "functional"}, "NCI-H460 [15]": {"test_system": "NCI-H460", "assay": "Induction of apoptosis in human NCI-H460 cells assessed as late apoptotic cells at 10 uM incubated for 24 hrs by annexin V-FITC/propidium iodide staining based flow cytometry analysis (reference value: 0.4%)", "format": "functional"}, "NCI-H460 [16]": {"test_system": "NCI-H460", "assay": "Cytotoxicity against human NCI-H460 cells assessed as reduction in cell viability at 10 uM incubated for 8 hr by CCK-8 assay", "format": "functional, cell-based"}, "NCI-H460 [17]": {"test_system": "NCI-H460", "assay": "Inhibition of cell invasion in human NCI-H460 cells at 7.5 uM incubated for 24 hrs by matrigel based transwell assay", "format": "functional"}, "A549 [18]": {"test_system": "A549", "assay": "Induction of apoptosis in human A549 cells assessed as viable cells at 10 uM incubated for 24 hrs by annexin V-FITC/propidium iodide staining based flow cytometry analysis (reference value: 95.2%)", "format": "functional", "conditions": "read-out: Activity"}, "A549 [19]": {"test_system": "A549", "assay": "Antiproliferative activity against human A549 cells assessed as reduction in cell viability incubated for 24 hrs by CCK-8 assay", "format": "functional, cell-based", "conditions": "A549, 24 h"}, "LoVo [20]": {"test_system": "LoVo", "assay": "Induction of apoptosis in human LoVo cells assessed as decrease in Bcl-2 protein expression level at 7.5 uM incubated for 24 hrs by western blot assay", "format": "functional, cell-based"}, "MDA-MB-231 [21]": {"test_system": "MDA-MB-231", "assay": "Antitumor activity against human MDA-MB-231 cells xenografted in BALB/c mouse assessed as reduction in tumor growth at 20 mg/kg,ip measured after 28 days", "format": "functional, organism-based", "conditions": "time 28.0 day"}, "OVCAR-3": {"test_system": "OVCAR-3", "assay": "Antitumor activity against human OVCAR-3 cells xenografted in BALB/c mouse assessed as reduction in tumor growth at 20 mg/kg,ip measured after 28 days", "format": "functional, organism-based", "conditions": "time 28.0 day"}, "HepG2": {"test_system": "HepG2", "assay": "Antiproliferative activity against human HepG2 cells assessed as reduction in cell viability incubated for 24 hrs by CCK-8 assay", "format": "functional, cell-based", "conditions": "HepG2, 24 h"}, "NCI-H460 [22]": {"test_system": "NCI-H460", "assay": "Induction of apoptosis in human NCI-H460 cells assessed as early apoptotic cells at 10 uM incubated for 24 hrs by annexin V-FITC/propidium iodide staining based flow cytometry analysis (reference value: 0.8%)", "format": "functional"}, "A549 [23]": {"test_system": "A549", "assay": "Induction of apoptosis in human A549 cells assessed as early apoptotic cells at 10 uM incubated for 24 hrs by annexin V-FITC/propidium iodide staining based flow cytometry analysis (reference value: 3.6%)", "format": "functional"}, "NCI-H1299": {"test_system": "NCI-H1299", "assay": "Antiproliferative activity against human NCI-H1299 cells assessed as reduction in cell viability incubated for 24 hrs by CCK-8 assay", "format": "functional, cell-based", "conditions": "NCI-H1299, 24 h"}, "LoVo [24]": {"test_system": "LoVo", "assay": "Induction of apoptosis in human LoVo cells assessed as viable cells at 10 uM incubated for 24 hrs by annexin V-FITC/propidium iodide staining based flow cytometry analysis (reference value: 98%)", "format": "functional", "conditions": "read-out: Activity"}, "NCI-H1650": {"test_system": "NCI-H1650", "assay": "Inhibition of colony formation in human NCI-H1650 cells incubated for 48 hrs by Giemsa staining based microscopy", "format": "functional, cell-based"}, "A549 [25]": {"test_system": "A549", "assay": "Inhibition of colony formation in human A549 cells incubated for 48 hrs by Giemsa staining based microscopy", "format": "functional, cell-based"}, "SW480": {"test_system": "SW480", "assay": "Inhibition of colony formation in human SW480 cells incubated for 48 hrs by Giemsa staining based microscopy", "format": "functional, cell-based"}, "HONE1 cell line": {"test_system": "HONE1 cell line", "assay": "Antiproliferative activity against human HONE1 cell line assessed as reduction in cell viability incubated for 24 hrs by CCK-8 assay", "format": "functional, cell-based", "conditions": "HONE1, 24 h"}},
  "note": "Active and inactive are the calls of the source. No cut-off for these calls is given here.",
  "data": [
    {"smiles": "C=CCc1ccc(O)c(-c2cc(CC=C)ccc2OCC[S+]([O-])CCCCN=C=S)c1", "note": "(stereo not drawn)", "values": [
      {"measurement": "IC50", "setting": "LoVo [1]", "value": 5.1, "unit": "µM"},
      {"measurement": "Activity", "setting": "NCI-H460 [2]", "value": "Active"},
      {"measurement": "Activity", "setting": "[3]", "value": "Non-Toxic"},
      {"measurement": "viability at 10 µM", "setting": "NCI-H460 [4]", "value": 15.3, "unit": "%"},
      {"measurement": "IC50", "setting": "[5]", "value": 9.56, "unit": "µM"},
      {"measurement": "inhibition", "setting": "LoVo [6]", "value": "Active"},
      {"measurement": "Activity", "setting": "LoVo [7]", "value": "Active"},
      {"measurement": "Activity", "setting": "NCI-H460 [8]", "value": "Active"},
      {"measurement": "Activity", "setting": "L02", "value": "Non-Toxic"},
      {"measurement": "IC50", "setting": "MDA-MB-231 [9]", "value": 7.48, "unit": "µM"},
      {"measurement": "inhibition", "setting": "AGS", "value": "Active"},
      {"measurement": "Activity", "setting": "A549 [10]", "value": 10.3, "unit": "%"},
      {"measurement": "inhibition", "setting": "A549 [11]", "value": "Active"},
      {"measurement": "Activity", "setting": "LoVo [12]", "value": "Active"},
      {"measurement": "Activity", "setting": "LoVo [13]", "value": 38, "unit": "%"},
      {"measurement": "inhibition", "setting": "NCI-H460 [14]", "value": "Active"},
      {"measurement": "Activity", "setting": "NCI-H460 [15]", "value": 72.9, "unit": "%"},
      {"measurement": "Activity", "setting": "NCI-H460 [16]", "value": "Active"},
      {"measurement": "inhibition", "setting": "NCI-H460 [17]", "value": "Active"},
      {"measurement": "viability at 10 µM", "setting": "A549 [18]", "value": 50.1, "unit": "%"},
      {"measurement": "IC50", "setting": "A549 [19]", "value": 9.07, "unit": "µM"},
      {"measurement": "Activity", "setting": "LoVo [20]", "value": "Active"},
      {"measurement": "Activity", "setting": "MDA-MB-231 [21]", "value": "Active"},
      {"measurement": "Activity", "setting": "OVCAR-3", "value": "Active"},
      {"measurement": "IC50", "setting": "HepG2", "value": 6.24, "unit": "µM"},
      {"measurement": "Activity", "setting": "NCI-H460 [22]", "value": 8.2, "unit": "%"},
      {"measurement": "Activity", "setting": "A549 [23]", "value": 13.9, "unit": "%"},
      {"measurement": "IC50", "setting": "NCI-H1299", "value": 9.17, "unit": "µM"},
      {"measurement": "viability at 10 µM", "setting": "LoVo [24]", "value": 22, "unit": "%"},
      {"measurement": "inhibition", "setting": "NCI-H1650", "value": "Active"},
      {"measurement": "inhibition", "setting": "A549 [25]", "value": "Active"},
      {"measurement": "inhibition", "setting": "SW480", "value": "Active"},
      {"measurement": "IC50", "setting": "HONE1 cell line", "value": 14.1, "unit": "µM"}
    ]}
  ]
}
